Test results published in patent US4289883A, “Carbostyril compounds” (Otsuka Pharmaceutical Co., Ltd., priority 1976, dated 1981).
Read-outs that look alike come from different tables or passages of the source.

Key:
[1] = acute toxicity (LD50), i.v. and p.o.; set-up: species or system rats; details: rat, in vivo
Protocol: Further, the acute toxicity of the compounds of the present invention having the formula (I) was determined by intravenous administration (i.v.) and oral administration (p.o.) in 5 to 6 group of rats (dd, strain; body weight, 18 to 22 g; 10 rats in each group) which have been fasted for 12 hours prior to the test.

β-adrenoreceptor = assay: β-adrenergic blocking activity in anesthetized dogs (antagonism to isoprenaline effects on heart rate, diastolic blood pressure and air-way resistance); type: in vivo; details: 10 minutes after i.v. test compound 300 μg/kg; for Inhibition (%) dBP (Diastolic Blood Pressure): antagonism to isoprenaline (1 μg/kg i.v.) induced depression of diastolic blood pressure; for Inhibition (%) dBP (Diastolic Blood Pressure) / Inhibition (%) AR (AirWay Resistance): dogs; for Inhibition (%) HR (Heart Rate): antagonism to isoprenaline (1 μg/kg i.v.) induced increase in heart rate, male hybrid adult dogs; for Inhibition (%) AR (AirWay Resistance): antagonism to isoprenaline depression of histamine (5 μg/kg i.v.) induced increase of air-way resistance
Protocol: The β-adrenergic blocking activity of the compounds of this invention was determined as follows:
Male hybrid adult dogs, weighing 10 to 16 kg, were anesthesized with sodium pentobarbital administered intravenously at a level of 30 mg/kg of body weight, and a cannula was inserted into the trachea of each of the anesthesized dogs. In order to avoid blood coagulation, heparin was administered intravenously at a level of 1000 units and thereafter a cannula was inserted into the right femoral artery. The experiments were conducted under artificial respiration at a rate of 20 ml/kg, 18 r.p.m.
The above parameters were continuously recorded on a polygraph (8S 28 Type, tradename of Sanei Sokki Co., Japan). During the experiment, gallamine was administered intravenously at a dosage of 3 mg/kg at one-hour intervals to avoid fluctuation of air-way resistance.
The β-adrenergic blocking activity of each of the test compounds was evaluated in terms of antagonism (Inhibition %) to the depression at the diastolic blood pressure (dBP) and to the increase in the heart rate induced by the intravenous administration of isoprenaline (1 μg/kg) and in terms of antagonism (Inhibition %) to the depression by isoprenaline in increase of air-way resistance which was induced by intravenous administration of histamine (5 μg/kg). In this case, histamine was administered 45 seconds after the administration of isoprenaline.

## COCCOc1ccc(OCC(O)CNCCc2ccc(OC)c(OC)c2)c2c1NC(=O)CC2.O=C(O)/C=C\C(=O)O (stereo not drawn) [8-(2-methoxyethoxy)-5-[3-(3,4-dimethoxyphenethylamino)-2-hydroxypropoxy]-3,4-dihydrocarbostyril maleate]
[1]; iv, Rats (Female), read-out: LD50 (50% lethal dose) i.v.
  LD50: 160 mg/kg
[1]; iv, Rats (Male), read-out: LD50 (50% lethal dose) i.v.
  LD50: 185 mg/kg
[1]; po, Rats (Female), read-out: LD50 (50% lethal dose) p.o.
  LD50: 1450 mg/kg
[1]; po, Rats (Male), read-out: LD50 (50% lethal dose) p.o.
  LD50: 1550 mg/kg

## CC(C)NCC(O)COc1ccc(CC(N)=O)cc1 (stereo not drawn) [Atenolol, reference compound]
β-adrenoreceptor
  Inhibition (%) dBP (Diastolic Blood Pressure): 26.9%
  Inhibition (%) HR (Heart Rate): 52.3%
  Inhibition (%) AR (AirWay Resistance): 9.8%

## CC(C)(C)NCC(O)COc1cccc2c1CCC(=O)N2 (stereo not drawn) [Comparison Compound 1, reference compound]
β-adrenoreceptor
  Inhibition (%) dBP (Diastolic Blood Pressure): 100%
  Inhibition (%) HR (Heart Rate): 100%
  Inhibition (%) AR (AirWay Resistance): 100%

## COc1ccc(CCNCC(O)COc2cccc3c2CCC(=O)N3)cc1OC (stereo not drawn) [Comparison Compound 2, reference compound]
β-adrenoreceptor
  Inhibition (%) dBP (Diastolic Blood Pressure): 65.6%
  Inhibition (%) HR (Heart Rate): 87.2%
  Inhibition (%) AR (AirWay Resistance): 79.1%

## CC(C)(C)NCC(O)COc1ccc(O)c2c1CCC(=O)N2 (stereo not drawn) [Prior Art Compound 1, reference compound]
β-adrenoreceptor
  Inhibition (%) dBP (Diastolic Blood Pressure): 100%
  Inhibition (%) HR (Heart Rate): 100%
  Inhibition (%) AR (AirWay Resistance): 100%

## COc1ccc(OCC(O)CNC(C)(C)C)c2c1NC(=O)CC2 (stereo not drawn) [Prior Art Compound 2, reference compound]
β-adrenoreceptor
  Inhibition (%) dBP (Diastolic Blood Pressure): 83.7%
  Inhibition (%) HR (Heart Rate): 82.1%
  Inhibition (%) AR (AirWay Resistance): 80.2%

## CC(C)(C)NCC(O)COc1ccc(OCc2ccccc2)c2c1CCC(=O)N2 (stereo not drawn) [Prior Art Compound 3, reference compound]
β-adrenoreceptor
  Inhibition (%) dBP (Diastolic Blood Pressure): 10.2%
  Inhibition (%) HR (Heart Rate): 71.3%
  Inhibition (%) AR (AirWay Resistance): 67.8%

## COCCOc1ccc(OCC(O)CNCCc2ccc(OC)c(OC)c2)c2c1NC(=O)CC2 (stereo not drawn) [Sample 1]
β-adrenoreceptor
  Inhibition (%) dBP (Diastolic Blood Pressure): 28.3%
  Inhibition (%) HR (Heart Rate): 45.5%
  Inhibition (%) AR (AirWay Resistance): 25.0%

## C=CCOc1ccc(OCC(O)CNCCc2ccc(OC)c(OC)c2)c2c1NC(=O)CC2 (stereo not drawn) [Sample 2]
β-adrenoreceptor
  Inhibition (%) dBP (Diastolic Blood Pressure): 23.5%
  Inhibition (%) HR (Heart Rate): 50.2%
  Inhibition (%) AR (AirWay Resistance): 24.5%

## C#CCOc1ccc(OCC(O)CNCCc2ccc(OC)c(OC)c2)c2c1NC(=O)CC2 (stereo not drawn) [Sample 3]
β-adrenoreceptor
  Inhibition (%) dBP (Diastolic Blood Pressure): 39.5%
  Inhibition (%) HR (Heart Rate): 57.6%
  Inhibition (%) AR (AirWay Resistance): 14.0%

## COc1ccc(CCNCC(O)COc2ccc(OCC(C)=O)c3c2CCC(=O)N3)cc1OC (stereo not drawn) [Sample 4]
β-adrenoreceptor
  Inhibition (%) dBP (Diastolic Blood Pressure): 15.1%
  Inhibition (%) HR (Heart Rate): 44.6%
  Inhibition (%) AR (AirWay Resistance): 2.7%

## C#CCOc1ccc(OCC(O)CNCC=C)c2c1NC(=O)CC2 (stereo not drawn) [Sample 5]
β-adrenoreceptor
  Inhibition (%) dBP (Diastolic Blood Pressure): 35.0%
  Inhibition (%) HR (Heart Rate): 50.5%
  Inhibition (%) AR (AirWay Resistance): 24.3%

## C#CCOc1ccc(OCC(O)CNC(C)(C)C)c2c1NC(=O)CC2 (stereo not drawn) [Sample 6]
β-adrenoreceptor
  Inhibition (%) dBP (Diastolic Blood Pressure): 94.5%
  Inhibition (%) HR (Heart Rate): 100%
  Inhibition (%) AR (AirWay Resistance): 47.6%

## C#CCOc1ccc(OCC(O)CNC(c2ccccc2)c2ccccc2)c2c1NC(=O)CC2 (stereo not drawn) [Sample 7]
β-adrenoreceptor
  Inhibition (%) dBP (Diastolic Blood Pressure): 20.5%
  Inhibition (%) HR (Heart Rate): 18.4%
  Inhibition (%) AR (AirWay Resistance): 8.0%

## COc1ccc(CCNCC(O)COc2ccc(OCCO)c3c2CCC(=O)N3)cc1OC (stereo not drawn) [Sample 8]
β-adrenoreceptor
  Inhibition (%) dBP (Diastolic Blood Pressure): 16.8%
  Inhibition (%) HR (Heart Rate): 26.3%
  Inhibition (%) AR (AirWay Resistance): 8.1%

## C#CCOc1ccc(OCC(O)CNC(C)(C)Cc2ccccc2)c2c1NC(=O)CC2 (stereo not drawn) [Sample 9]
β-adrenoreceptor
  Inhibition (%) dBP (Diastolic Blood Pressure): 75.7%
  Inhibition (%) HR (Heart Rate): 61.7%
  Inhibition (%) AR (AirWay Resistance): 41.3%

## C=CCOc1ccc(OCC(O)CNCC(c2ccccc2)c2ccccc2)c2c1NC(=O)CC2 (stereo not drawn) [Sample 10]
β-adrenoreceptor
  Inhibition (%) dBP (Diastolic Blood Pressure): 20.4%
  Inhibition (%) HR (Heart Rate): 25.8%
  Inhibition (%) AR (AirWay Resistance): 3.5%

## COc1ccc(CCNCC(O)COc2ccc(OCC(=O)O)c3c2CCC(=O)N3)cc1OC (stereo not drawn) [Sample 11]
β-adrenoreceptor
  Inhibition (%) dBP (Diastolic Blood Pressure): 47.1%
  Inhibition (%) HR (Heart Rate): 50.0%
  Inhibition (%) AR (AirWay Resistance): 9.4%

## COc1ccc(CCNCC(O)COc2ccc(OCC(N)=O)c3c2CCC(=O)N3)cc1OC (stereo not drawn) [Sample 12]
β-adrenoreceptor
  Inhibition (%) dBP (Diastolic Blood Pressure): 44.2%
  Inhibition (%) HR (Heart Rate): 57.9%
  Inhibition (%) AR (AirWay Resistance): 15.2%

## CC(=O)Oc1ccc(OCC(O)CNC(C)(C)C)c2c1N(Cc1ccccc1)C(=O)CC2 (stereo not drawn) [Sample 13]
β-adrenoreceptor
  Inhibition (%) dBP (Diastolic Blood Pressure): 77.5%
  Inhibition (%) HR (Heart Rate): 85.2%
  Inhibition (%) AR (AirWay Resistance): 59.3%

## CC(C)NCC(O)COc1ccc(OC(=O)C2CCCCC2)c2c1CCC(=O)N2 (stereo not drawn) [Sample 14]
β-adrenoreceptor
  Inhibition (%) dBP (Diastolic Blood Pressure): 36.3%
  Inhibition (%) HR (Heart Rate): 43.2%
  Inhibition (%) AR (AirWay Resistance): 27.6%

## CCOC(=O)COc1ccc(OCC(O)CNCCc2ccc(OC)c(OC)c2)c2c1NC(=O)CC2 (stereo not drawn) [Sample 15]
β-adrenoreceptor
  Inhibition (%) dBP (Diastolic Blood Pressure): 8.5%
  Inhibition (%) HR (Heart Rate): 10.2%
  Inhibition (%) AR (AirWay Resistance): 2.7%

## C#CCOc1ccc(OCC(O)CNCCc2ccc(OC)c(OC)c2)c2ccc(=O)[nH]c12 (stereo not drawn) [Sample 16]
β-adrenoreceptor
  Inhibition (%) dBP (Diastolic Blood Pressure): 40.9%
  Inhibition (%) HR (Heart Rate): 55.3%
  Inhibition (%) AR (AirWay Resistance): 13.7%

## COCCOc1ccc(OCC(O)CNC(C)C)c2c1NC(=O)CC2 (stereo not drawn) [Sample 17]
β-adrenoreceptor
  Inhibition (%) dBP (Diastolic Blood Pressure): 34.1%
  Inhibition (%) HR (Heart Rate): 41.8%
  Inhibition (%) AR (AirWay Resistance): 9.7%

## C=CCOc1ccc(OCC(O)CNC(C)(C)C)c2c1NC(=O)CC2.Cl (stereo not drawn) [Sample 18, 8-allyloxy-5-(3-t-butylamino-2-hydroxypropoxy)-3,4-dihydrocarbostyril hydrochloride]
β-adrenoreceptor
  Inhibition (%) dBP (Diastolic Blood Pressure): 100%
  Inhibition (%) HR (Heart Rate): 34.6%
  Inhibition (%) AR (AirWay Resistance): 0%

## COc1ccc(CCNCC(O)COc2ccc(OCC(=O)O)c3c2CCC(=O)N3)cc1OC (stereo not drawn) [Sample 19]
β-adrenoreceptor
  Inhibition (%) HR (Heart Rate): 50.0%
  Inhibition (%) AR (AirWay Resistance): 9.4%

## COCCOc1ccc(OCC(O)CNCCOc2ccc(OC)cc2)c2c1NC(=O)CC2 (stereo not drawn) [Sample 20]
β-adrenoreceptor
  Inhibition (%) dBP (Diastolic Blood Pressure): 18.1%
  Inhibition (%) HR (Heart Rate): 23.7%
  Inhibition (%) AR (AirWay Resistance): 8.3%

## C#CCOc1ccc(OCC(O)CNC2CCCCC2)c2c1NC(=O)CC2 (stereo not drawn) [Sample 21]
β-adrenoreceptor
  Inhibition (%) dBP (Diastolic Blood Pressure): 22.0%
  Inhibition (%) HR (Heart Rate): 17.3%
  Inhibition (%) AR (AirWay Resistance): 8.3%
